Patent US9581577B2, “Miniaturized flow-through cell” (NATIONAL UNIVERSITY OF SINGAPORE, priority 2012, dated 2017)

Legend:
[1] = Permeation across rat abdominal skin in horizontal diffusion cell (HDC); type: in vitro ADME
Method: To evaluate the performance characteristics of the MFtC 5, permeation of model compounds (rhodamine B and mangostin) using a horizontal diffusion cell (TK-6H1, Shanghai Kai Kai Technology, China) and a MFtC 5 was compared. Rat abdominal skins were obtained from the National University of Singapore Animal Centre and kept at −80° C. until use. Prior to the permeation studies, the skins were thawed and hair was completely removed with an electrical shaver and hair remover cream (Veet). Subcutaneous fat and connective tissues were also lightly trimmed off. All animal experiments were approved by Institutional Animal Care and Use Committee, National University of Singapore. A 2.0 cm×2.0 cm piece of rat abdominal skin was mounted between the donor and receptor compartments of the horizontal diffusion cell, with the stratum corneum side facing the donor compartment. The effective diffusion area was 1.13 cm^2. Each donor cell contained 4.5 ml of each model compound in propylene glycol (PG) and the receptor cell contained the same volume of PBS. Mangostin was used at a concentration of 2.3 mg/ml and rhodamine B at concentrations of 1 mg/ml and 5 mg/ml. Both compartments were thermostated at 37° C. by means of a surrounding temperature controlled water jacket. In order to minimize evaporation, all cell openings were occluded with parafilm. The fluids in both compartments were maintained in a stirred state by a Teflon coated magnetic stirrer at a speed of 250±1.25 rpm. Samples (1 ml) were withdrawn from the receptor compartment for analysis at specific time intervals. Upon each sample withdrawal, the receptor compartment was immediately replaced by an equal volume of fresh solution. The experiments were performed in triplicates or more. Skin samples from the same rat were used for comparisons between the horizontal diffusion cell and a MFtC 5 to minimise inter-animal variability. All experiments were performed at least three times. The samples were collected at the same time intervals and stored at 4° C. until analysis. During analysis, samples were first centrifuged at 13,000 rpm (Sorvall Biofuge Pico, UK) for 5 min. The supernatant was obtained and analyzed according to their respective assay methods as reported below. Concentration of rhodamine B was determined by fluorescence spectroscopy with a microplate reader (Tecan, Switzerland) at an excitation wavelength (λex)=554 nm and an emission wavelength (λem)=586 nm at ambient temperature. All samples were protected from light to prevent possible light quenching of fluorescence during the assay. Mangostin concentration was determined with a reversed phase HPLC (Hitachi, Japan) using a C18 column (5 μm, 4.6 mm×250 mm; ODS Hypersil, Thermo Scientific) maintained at ambient temperature. The mobile phase comprised of methanol and ultrapure water (90:10, v/v) delivered at a flow rate of 1 ml/min. The UV detector (L-2400, Hitachi, Japan) was operated at a λ=320 nm. Under these conditions, the mangostin peak appeared at a retention time of 6.8 min.

[2] = Permeation across rat abdominal skin in miniaturized flow-through cell (MFtC), validation; type: in vitro ADME
Method: To evaluate the performance characteristics of the MFtC 5, permeation of model compounds (rhodamine B and mangostin) using a horizontal diffusion cell (TK-6H1, Shanghai Kai Kai Technology, China) and a MFtC 5 was compared. Rat abdominal skins were obtained from the National University of Singapore Animal Centre and kept at −80° C. until use. Prior to the permeation studies, the skins were thawed and hair was completely removed with an electrical shaver and hair remover cream (Veet). Subcutaneous fat and connective tissues were also lightly trimmed off. All animal experiments were approved by Institutional Animal Care and Use Committee, National University of Singapore. Similar conditions were used in the MFtC 5 or MFtC 5 setup. A 1.0 cm×1.0 cm piece of rat abdominal skin was mounted between the donor compartment 220 and the receptor compartment 120 with the stratum corneum side facing the donor compartment 220 of the MFtC 5. In some embodiments, the area and shape of the skin/membrane of the present disclosure can be modified as needed or per application requirements. A sealant or sealing substance or material such as high vacuum grease (Dow Corning, USA) was applied to the donor compartment 220 on the unexposed stratum corneum side, in contact with the receptor compartment 120, to minimize leakage from the donor compartment 220. Other sealants, sealing substances, or high vacuum grease for minimizing leakage from the donor compartment 220 can be selected as needed or per application requirements. […] On the other hand, leakage of the donor solution could be observed when no grease was applied. In an embodiment of the present disclosure, the effective diffusion area was 0.283 cm^2. In some embodiments, the effective diffusion area can be about 0.283 cm^2 to about 0.5 cm^2. In an embodiment of the present disclosure, 70 μl of the donor solution was added into the donor compartment 220. In some embodiments, the volume of the donor solution added to the donor compartment 220 can be about 70 μl to about 300 μl. In an embodiment of the present disclosure, the receptor fluid or receptor solution comprised degassed PBS solution. In some embodiments, the receptor solution of the present disclosure can comprise other solutions such as water, buffers, extracellular fluid, lung lining fluid, gastric fluid, and/or cerebrospinal fluid. In an embodiment of the present disclosure, the flow rate of receptor solution through each diffusion cell 50 can be controlled by an infusion pump system 60, wherein the flow rate can be about 0.20 ml/hr. In some embodiments, the flow rate of receptor solution through each diffusion cell 50 can be reduced or increased to a flow rate of about 0.828 μl/hr to about 1270 ml/hr as needed or per application requirements. An embodiment of a MFtC 5 of the present disclosure was placed in a temperature controlling system such as a water bath 80 maintained at 37° C. using a hot plate to control the temperature. In some embodiments, the temperature can be adjusted as needed or per application requirements. In order to minimize evaporation, the donor compartment 220 and sampling container(s) 70 such as a sampling microfuge tube(s) 70 were occluded with parafilm. The sampling container(s) 70 such as a sampling tube(s) 70 was collected at specific time intervals and replaced by a sampling container(s) 70 such as an empty sampling tube(s) 70 for subsequent collections. The experiments were performed in triplicates or more. In some embodiments, the method of collecting the sample can be modified as needed or per application requirements. Skin samples from the same rat were used for comparisons between the horizontal diffusion cell and a MFtC 5 to minimise inter-animal variability. All experiments were performed at least three times. The samples were collected at the same time intervals and stored at 4° C. until analysis. During analysis, samples were first centrifuged at 13,000 rpm (Sorvall Biofuge Pico, UK) for 5 min. […]

[3] = cited from earlier work
[4] = Endoxifen permeation studies with MFtC, with or without permeation enhancers; type: in vitro ADME, rat; conditions: for Flux / Lag time: MFtC, rat abdominal skin, mean ± SD, N = 3
Method: A fluorescence assay for endoxifen was established whereby endoxifen was converted to highly fluorescent phenanthrene derivatives following exposure to ultraviolet (UV) irradiation. A UV transilluminator (Bio Rad, USA) at λ=302 nm and an intensity of 866 μW/cm^2 was used for the conversion of endoxifen to its phenanthrene derivatives. The fluorescence emitted from the phenanthrene derivatives of endoxifen after various durations of UV exposure was determined with a microplate reader at a λex=260 nm and a λem=380 nm. Fluorescence measurements from non-UV exposed samples served as a control. The optimum duration of UV irradiation was determined with a 10 μg/ml solution of endoxifen. For all subsequent experiments, this duration of UV irradiation was fixed at the optimal time. The validated MFtC 5 mounted with rat abdominal skin was employed to determine the permeation profile of endoxifen. Donor solutions comprised of endoxifen (2 mg/ml) in PG with and without permeation enhancers (PEs) namely limonene, myristyl lactate and oleic acid at 0.5% (w/v) were prepared. All solutions were sonicated for 3 min to ensure dissolution of endoxifen and PEs. Each donor compartment 220 was filled with 200 μl of donor solution. Endoxifen was allowed to permeate through the rat abdominal skin over 48 hr. The experiments were performed in triplicates. Samples of permeated solutions were collected at specific time intervals and stored at −20° C. until analysis. The flux at steady state (Jss) and lag time were obtained from the cumulative plots. The effect of the PEs on the flux was evaluated by calculating the enhancement index (EI). Independent sample t-test (IBM SPSS PASW Statistics 18) was used to compare the permeation parameters obtained from experiments involving horizontal diffusion cell and MFtC 5. For endoxifen permeation experiments, one-way analysis of variance (ANOVA) with Scheffe post hoc test was used for the comparison of the permeation parameters of endoxifen with or without the different PEs. For all tests, p<0.05 was considered significant.

[5] = Flux through rat skin translated to human skin; type: in vitro ADME; conditions: translated from the rat skin flux of 6.52 μg/cm^2/hr; limonene as PE in PG
[6] = endoxifen in 60% (v/v) ethanol-phosphate buffer with 0.5% (w/v) oleic acid; cited from earlier work
[7] = HDC, donor 1 mg/ml in propylene glycol, rat abdominal skin, mean ± SD
[8] = HDC, donor 5 mg/ml in propylene glycol, rat abdominal skin, mean ± SD
[9] = MFtC, donor 1 mg/ml in propylene glycol, rat abdominal skin, mean ± SD
[10] = MFtC, donor 5 mg/ml in propylene glycol, rat abdominal skin, mean ± SD
[11] = ENX 2 mg/ml in PG alone (control)
[12] = ENX 2 mg/ml in PG with limonene 0.5% (w/v)
[13] = ENX 2 mg/ml in PG with myristyl lactate 0.5% (w/v)
[14] = ENX 2 mg/ml in PG with oleic acid 0.5% (w/v)

Structure (SMILES): CCN(CC)c1ccc2c(-c3ccccc3C(=O)O)c3ccc(=[N+](CC)CC)cc-3oc2c1.[Cl-] [rhodamine B]
- Flux [1, 7]: 0.04 ± 0.03 μg/cm^2/hr
- Lag time [1, 7]: 17.7 ± 3.47 h
- Flux [1, 8]: 0.07 ± 0.01 μg/cm^2/hr
- Lag time [1, 8]: 11.4 ± 3.31 h
- Flux [2, 9]: 0.05 ± 0.02 μg/cm^2/hr
- Lag time [2, 9]: 22.1 ± 4.07 h
- Flux [2, 10]: 0.05 ± 0.02 μg/cm^2/hr
- Lag time [2, 10]: 8.35 ± 4.75 h
- log P [3]: 2.43

Structure (SMILES): CCCCCCCCCCCCCCOC(=O)C(C)O (stereo not shown) [myristyl lactate]
- log P [3]: 6.08

Structure (SMILES): CC(O)CO (stereo not shown) [propylene glycol]
- log P [3]: −1.00

Structure (SMILES): CC/C(=C(\c1ccc(O)cc1)c1ccc(OCCNC)cc1)c1ccccc1 [endoxifen]
- Flux [4, 11]: 0.65 ± 0.01 μg/cm^2/hr
- Lag time [4, 11]: 1.03 ± 1.40 h
- Flux [4, 12]: 6.52 μg/cm^2/hr
- Lag time [4, 12]: 3.75 ± 2.37 h
- Flux ([4]; ENX 2 mg/ml in PG with limonene 0.5% (w/v), listed as ENX): 6.52 ± 1.41 μg/cm^2/hr
- Flux [4, 13]: 5.33 ± 0.13 μg/cm^2/hr
- Lag time [4, 13]: 7.62 ± 2.18 h
- Flux [4, 14]: 4.09±1.07 μg/cm^2/hr
- Lag time [4, 14]: 7.58 ± 4.04 h
- Flux ([4]; ENX 2 mg/ml in PG with oleic acid 0.5% (w/v), listed as ENX): 4.09 ± 1.07 μg/cm^2/hr
- Enhancement index (EI) = Jss (with enhancer)/Jss (without enhancer) ([4]; ENX in PG with limonene 0.5% (w/v) versus PG alone): 9.99
- Enhancement index (EI) = Jss (with enhancer)/Jss (without enhancer) ([4]; ENX in PG with myristyl lactate 0.5% (w/v) versus PG alone): 8.17
- Enhancement index (EI) = Jss (with enhancer)/Jss (without enhancer) ([4]; ENX in PG with oleic acid 0.5% (w/v) versus PG alone): 6.26
- Flux through human skin [5]: 2.17 μg/cm^2/hr
- log P [3]: 4.94
- Highest flux reported (Jss) [6]: 0.22 μg/cm^2/hr

Structure (SMILES): COc1c(O)cc2oc3cc(O)c(CC=C(C)C)c(O)c3c(=O)c2c1CC=C(C)C [mangostin, α-mangostin]
- Flux ([1]; rat, 48 h, 2.3 mg/ml): 7.06 ± 1.06 μg/cm^2/hr
- Lag time ([1]; rat, 48 h, 2.3 mg/ml): 7.19 ± 0.47 h
- Flux ([2]; rat, 48 h, 2.3 mg/ml): 8.34 ± 3.40 μg/cm^2/hr
- Lag time ([2]; rat, 48 h, 2.3 mg/ml): 14.5 ± 2.71 h
- log P [3]: 6.64

Structure (SMILES): CCCCCCCC/C=C\CCCCCCCC(=O)O [oleic acid]
- log P [3]: 7.42

Structure (SMILES): C=C(C)[C@H]1CC=C(C)CC1 [limonene, (R)-(+)-limonene]
- log P [3]: 4.83
